Results from paper PMC10135567, “New Indole-3-Propionic Acid and 5-Methoxy-Indole Carboxylic Acid Derived Hydrazone Hybrids as Multifunctional Neuroprotectors” (Antioxidants, 2023).

Columns and labels:
[1] = MTT cell viability assay (cytotoxicity), SH-SY5Y; conditions: human, SH-SY5Y neuroblastoma cells
Experimental: Neuroblastoma cell line SH-SY5Y (94030304) was acquired from the European Collection of Cell Cultures (ECACC, Salisbury, UK). Cells were cultured in a medium prepared with RPMI basic media supplemented with 10% heat-inactivated FBS (fetal bovine serum), 2 mM L-glutamine, 1% antibiotics (penicillin/streptomycin), and incubated at 37 °C in a humidified atmosphere containing 5% of CO2. The culture’s medium was replaced at a time interval of 2–3 days.
Cell viability was assessed via the mitochondrial reductase-dependent reaction of (3-(4,5-dimethylthiazol-2-yl)- 2,5-diphenyl tetrazolium bromide (MTT, cat. no. 475989, Calbiochem, Merck KGaA, Darmstadt, Germany). The SH-SY5Y and bEnd3 cell lines were seeded in 96-well plates at a density of 0.7 × 10^4 (bEnd3) or 2 × 10^4 (SH-SY5Y) cells/well and allowed to adhere for 24 h at 37 °C, 5% CO2. Then, the cells were incubated with the compounds (1–500 μM) for a preset time (24 h). For the solvent, the control cells were treated with DMSO corresponding to the highest concentration of DMSO in the samples (0.5% DMSO) in order to exclude its cytotoxic effect on the cells. For each concentration, a set of at least 6 wells were used. After incubation, the solution from each well was exchanged with fresh culture medium (100 µL/well), containing the MTT reagent (0.5 mg/mL) and incubated for 3 h at 37 °C in a humidified atmosphere and 5% CO2. The obtained formazan crystals were dissolved in 100 µL/well of 5% formic acid in propan-2-ol solution (or DMSO). The absorbance was measured at 570 nm via multiplate reader Tecan Infinite F200 PRO (Tecan Trading AG., Männedorf, Switzerland) or Synergy 2 (BioTek Instruments, Inc., Highland Park, Winooski, VT, USA).
Both the SH-SY5Y and bEnd3 cells were treated with the test compounds in a concentration range from 1 to 500 µM for 24 h.

[2] = test system: isolated rat-brain synaptosomes; assay: 6-OHDA-induced neurotoxicity in isolated rat synaptosomes, synaptosomal viability; assay type: cell-based; conditions: 10 µM pre-incubation 30 min, then 150 µM 6-OHDA 1 h; for viability at 10 µM: Rattus norvegicus, read-out: synaptosomal viability (SV) preserved, as compared to 6-OHDA
Experimental: This neurotoxicity model was based on the metabolism and auto-oxidation of 6-hydroxy dopamine responsible for the reactive oxygen species and quinones generation, ultimately leading to neurotoxicity and neurodegeneration. The experiment was performed by pre-incubation of the synaptosomes with 10 µM of the compounds for 30 min, followed by the addition of 150 µM 6-hydroxy dopamine for induction of neurotoxicity. After 1 h, they were centrifuged twice for 1 min at 15,000 × g. After the second wash, the precipitates were resolved with buffer B and glucose.

[3] = Superoxide radical scavenging, xanthine/xanthine oxidase/NBT system; assay type: biochemical; conditions: for decrease of NBT reduction as compared to the controls: 100 µM (highest tested concentration); for increase of absorbance ratio as compared to the controls: 100 µM; for absorbance ratio (NBT reduction, % of control): 1, 10, 50 and 100 µM
Experimental: The 1 mL cuvette for the control contained 1 mM xanthine, 20 µL xanthine oxidase (100 IU/L), and 0.04 mM NBT [43, 44]. In the sample compositions, the tested hydrazones at different concentrations were added. All measurement compositions were incubated at 37 °C, and the absorbance was determined spectrophotometrically at 560 nm via Shimadzu UV-1601 UV-vis spectrophotometer.
The potential capability of the investigated compounds to prevent the superoxide-anion radical-induced NBT reduction was investigated spectrophotometrically by xanthine-oxidase assay. The assay was carried out at the final concentration of the tested compounds, at 1, 10, 50, and 100 µM.

bEnd3 monolayer = assay: Permeability assay, static BBB model of bEnd3 monolayer (streptavidin-HRP passage); assay type: cell-based, mouse; conditions: 90 min
Experimental: To evaluate the compounds’ effect on a BBB model, bEnd3 endothelial cells were seeded on polycarbon (PC) cell-culture inserts with 0.4 µm pore size (cat. no. 1CH3.1, BRAND GMBH + CO KG, Wertheim, Germany) and a density of 5.6 × 10^3 cells/insert. The inserts were placed in a 24-well plate containing 1 mL of cell-culture medium. […] On the second day of incubation, the cell-culture medium was refreshed. To ensure 100% confluence, the inserts were evaluated for medium leakage before the experiment. […] Following the incubation, the inserts were placed in a new 24-well plate containing 1 mL Phenol Red free–DMEM (cat. no. D1145, Sigma-Aldrich Co. LLC, St. Louis, MO, USA) without serum. In the upper chamber, a solution of streptavidin, conjugated with horse-radish peroxidase (HRP, cat. no. SA00001-0, Proteintech, Rosemont, Illinois, USA) (1:1000) in serum-free phenol red medium was added. The cells were further incubated for 5 min at 37 °C and 5% CO2, after which the inserts were removed. The remaining medium in the 24-well plate was collected and vortexed briefly, and 3 × 50 µL aliquots were transferred into a 96-well plate. A total of 50 µL TMB Signal+ substrate solution (BUF054A, Bio-Rad, Hercules, CA, USA) was added to each well and incubated for 5 min at 37 °C. The HRP converted the TMB to a blue-colored product. To stop the reaction, 50 µL of 0.2 N H2SO4 was added that caused the blue color to turn yellow. […] Each condition was tested at least twice.
To further explore the neuroprotective effect of the compounds, we tested their ability to influence the BBB and its permeability, utilizing a static BBB model with brain microvascular endothelial cell line bEnd3 [36], as it would be essential for the compounds to pass the BBB and protect the neuronal cells. In addition to their endothelial origin, the bEnd3 cells were strongly connected by specific proteins (ZO-1, claudin-5) forming tight junctions (TJs). This was crucial for preventing unregulated […] transport and sustaining the apical–basal polarity of the monolayer. Here, we determined any changes in the permeability of the BBB by imitating an endothelial barrier via a static BBB model of bEnd3 cells (Figure 11a,c,e). This allowed us to determine the possibility of drug passage. It should be noted, that even though drug passage was desirable, any irreversible modifications of the cell monolayer and the TJs were considered threatening. Therefore, in parallel to the permeability tests, the bEnd3 cells were stained for TJ-formation and ZO-1 distribution (Figure 11b,d,f).

[4] = Fe(II)-induced deoxyribose degradation assay; assay type: biochemical; conditions: 80 µM, 2-deoxyribose 0.5 mM, 0.1 mM FeCl2; for absorbance ratio, % of the controls (deoxyribose degradation): lower = stronger antioxidant
Experimental: The lipid peroxidation assay and a modification of the deoxyribose-degradation assay were used. Two types of measurement compositions in phosphate buffer (PB–K2HPO4/KH2PO4, pH 7.4) were prepared for both tests: (i) samples, containing the biologically relevant molecules (lecithin emulsion or deoxyribose), iron, and the tested hydrazones at the concentrations indicated below the figures; and (ii) controls, in which the tested hydrazones were omitted. The data for the sample activity were presented as a percentage of the control measurement.
The deoxyribose (0.5 mM) damage was induced by adding FeCl2 (0.1 mM). The measurement compositions were incubated at 37 °C for 30 min. The next step comprised adding 0.5 mL of 2.8% trichloroacetic acid and 0.5 mL of thiobarbituric acid. Then, the samples were heated in boiling water for 20 min, and their absorbance was estimated at 532 nm (characteristic band for the generated chromophore) via Shimadzu UV-1601 UV-vis spectrophotometer.

COc1cc(C=NNC(=O)CCc2c[nH]c3ccccc23)cc(OC)c1O [Compound 3f, N′-(4-Hydroxy-3,5-dimethoxybenzylidene)-3-(1H-indol-3-yl)propanehydrazide]
IC50 at 24 h [1]: > 500 µM | viability at 10 µM [2]: 44% | decrease of NBT reduction as compared to the controls [3]: less than 15% | increase in the permeability of bEnd3 monolayer (bEnd3 monolayer; 10 µM): 0.5 times | change of permeability of bEnd3 monolayer vs. control (in words) (bEnd3 monolayer; 50 µM): increased the permeability | melting point: 134 to 135 °C

COc1ccc2[nH]cc(CCNC(C)=O)c2c1 [Melatonin]
IC50 at 24 h [1]: > 500 µM | viability at 10 µM [2]: 78% | influence on the permeability of the monolayer (in words) (bEnd3 monolayer; 10 or 50 µM): did not influence the permeability

COc1ccc(C=NNC(=O)c2cc3cc(OC)ccc3[nH]2)c(O)c1 [Compound 5e, N′-(2-Hydroxy-4-methoxybenzylidene)-5-methoxy-1H-indole-2-carbohydrazide]
IC50 at 24 h [1]: 200 µM | viability at 10 µM [2]: 56% | absorbance ratio, % of the controls (deoxyribose degradation) [4]: did not induce a modulating effect | increase of absorbance ratio as compared to the controls [3]: 40%

COc1cc(C=NNC(=O)CCc2c[nH]c3ccccc23)ccc1O [Compound 3d, N′-(4-Hydroxy-3-methoxybenzylidene)-3-(1H-indol-3-yl)propanehydrazide]
IC50 at 24 h [1]: 156 µM | viability at 10 µM [2]: 33% | pro-oxidant effect above the controls (deoxyribose degradation) [4]: about 10% | decrease of NBT reduction as compared to the controls [3]: less than 15% | change of permeability of bEnd3 monolayer vs. control (in words) (bEnd3 monolayer; 50 µM): increased the permeability | melting point: 157 to 158 °C

COc1ccc2[nH]c(C(=O)NN=Cc3ccc(O)cc3O)cc2c1 [Compound 5c, N′-(2,4-Dihydroxybenzylidene)-5-methoxy-1H-indole-2-carbohydrazide]
IC50 at 24 h [1]: 73.9 µM | viability at 10 µM [2]: 44% | absorbance ratio, % of the controls (deoxyribose degradation) [4]: did not induce a modulating effect | absorbance ratio (NBT reduction, % of control) [3]: did not influence the estimated absorbance ratio at any of the tested concentrations | change of permeability of bEnd3 monolayer vs. control (in words) (bEnd3 monolayer; 50 µM): reduced the permeability

COc1ccc2[nH]c(C(=O)NN=Cc3ccc(O)c(OC)c3)cc2c1 [Compound 5d, N′-(4-Hydroxy-3-methoxybenzylidene)-5-methoxy-1H-indole-2-carbohydrazide]
IC50 at 24 h [1]: 98.2 µM | viability at 10 µM [2]: 44% | absorbance ratio, % of the controls (deoxyribose degradation) [4]: did not induce a modulating effect | increase of absorbance ratio as compared to the controls [3]: 23% | change of permeability of bEnd3 monolayer vs. control (in words) (bEnd3 monolayer; 10 µM): decreased it | melting point: 261 °C

N′-(4-Hydroxy-2-methoxybenzylidene)-3-(1H-indol-3-yl)propanehydrazide [Compound 3e]
synaptosomal viability (SV) preserved, as compared to 6-OHDA [2]: 33% | pro-oxidant effect above the controls (deoxyribose degradation) [4]: about 10% | absorbance ratio (NBT reduction, % of control) [3]: approximately 135% | change of permeability of bEnd3 monolayer vs. control (in words) (bEnd3 monolayer; 50 µM): increased the permeability

COc1ccc2[nH]c(C(=O)NN=Cc3cccc(O)c3O)cc2c1 [Compound 5a, N′-(2,3-Dihydroxybenzylidene)-5-methoxy-1H-indole-2-carbohydrazide]
IC50 at 24 h [1]: 79.3 µM | viability at 10 µM [2]: 56% | absorbance ratio, % of the controls (deoxyribose degradation) [4]: about 50% | decrease of NBT reduction as compared to the controls [3]: less than 15% | change of permeability of bEnd3 monolayer vs. control (in words) (bEnd3 monolayer; 10 µM): passage through the BBB model was induced | change of permeability of bEnd3 monolayer vs. control (in words) (bEnd3 monolayer; 50 µM): reduced the permeability | melting point: 262 to 263 °C

COc1ccc2[nH]c(C(=O)NN=Cc3cc(OC)c(O)c(OC)c3)cc2c1 [Compound 5f, N′-(4-Hydroxy-3,5-dimethoxybenzylidene)-5-methoxy-1H-indole-2-carbohydrazide]
IC50 at 24 h [1]: 287 µM | viability at 10 µM [2]: 56% | increase of absorbance ratio as compared to the controls [3]: 8% | change of permeability of bEnd3 monolayer vs. control (in words) (bEnd3 monolayer; 10 µM): decreased it | melting point: 239 to 240 °C

COc1ccc2[nH]c(C(=O)NN=Cc3ccc(O)c(O)c3)cc2c1 [Compound 5b, N′-(3,4-Dihydroxybenzylidene)-5-methoxy-1H-indole-2-carbohydrazide]
IC50 at 24 h [1]: 111 µM | viability at 10 µM [2]: 44% | NBT reduction decreased to ([3]; 10 µM): 20% | change of permeability of bEnd3 monolayer vs. control (in words) (bEnd3 monolayer; 10 µM): passage through the BBB model was induced | change of permeability of bEnd3 monolayer vs. control (in words) (bEnd3 monolayer; 50 µM): reduced the permeability | melting point: 252 to 253 °C
